From patent EP3154958B1, “PHOSPHATIDYLINOSITOL 3-KINASE INHIBITORS” (Gilead Sciences, Inc., priority 2014, dated 2015)
Like-named read-outs stand apart in the source and are kept apart here.

Assays:
Type in all cases: biochemical
PI3Kβ = target: T1, PI3Kβ (Homo sapiens, UniProt P42338); experiment: TR-FRET enzymatic activity assay, PI3Kβ
T1 construct: made in house
Procedure: (§1) The compounds of formula (I) were characterized for their enzymatic activity against the PI3K isoforms. The activities were measured using a time-resolved fluorescence resonance energy transfer (TR-FRET) assay.

PI3Kδ = target: T2, PI3Kδ (Homo sapiens, UniProt O00329); experiment: TR-FRET enzymatic activity assay, PI3Kδ
T2 construct: made in house
T2 sequence (O00329 whole entry): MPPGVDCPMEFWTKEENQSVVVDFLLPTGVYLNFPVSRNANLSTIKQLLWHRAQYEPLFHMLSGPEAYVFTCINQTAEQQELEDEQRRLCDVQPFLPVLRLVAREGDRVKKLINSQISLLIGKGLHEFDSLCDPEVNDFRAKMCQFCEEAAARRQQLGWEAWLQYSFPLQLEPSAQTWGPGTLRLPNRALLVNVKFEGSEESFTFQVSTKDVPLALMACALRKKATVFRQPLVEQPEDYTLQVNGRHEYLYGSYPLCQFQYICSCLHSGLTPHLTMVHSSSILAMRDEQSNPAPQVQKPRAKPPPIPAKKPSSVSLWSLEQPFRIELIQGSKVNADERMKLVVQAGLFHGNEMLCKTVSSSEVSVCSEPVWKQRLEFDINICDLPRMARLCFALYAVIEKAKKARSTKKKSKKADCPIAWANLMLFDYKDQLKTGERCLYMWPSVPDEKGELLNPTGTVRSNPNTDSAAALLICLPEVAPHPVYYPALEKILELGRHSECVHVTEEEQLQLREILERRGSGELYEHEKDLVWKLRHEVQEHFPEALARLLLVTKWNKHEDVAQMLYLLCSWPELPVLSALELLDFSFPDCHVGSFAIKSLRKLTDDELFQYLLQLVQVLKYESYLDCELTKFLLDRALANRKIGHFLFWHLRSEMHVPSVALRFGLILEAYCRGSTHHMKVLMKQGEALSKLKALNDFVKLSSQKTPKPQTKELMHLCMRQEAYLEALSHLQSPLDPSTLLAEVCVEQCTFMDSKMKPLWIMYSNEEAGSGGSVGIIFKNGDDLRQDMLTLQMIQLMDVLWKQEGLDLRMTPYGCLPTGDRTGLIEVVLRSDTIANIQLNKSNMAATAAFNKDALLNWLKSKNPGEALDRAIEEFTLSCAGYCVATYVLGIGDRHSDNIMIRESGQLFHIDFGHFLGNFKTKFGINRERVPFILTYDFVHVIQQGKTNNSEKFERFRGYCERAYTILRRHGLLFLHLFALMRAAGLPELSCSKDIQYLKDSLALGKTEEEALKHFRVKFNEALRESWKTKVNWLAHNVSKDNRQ
T2 sequence (P27986 whole entry partner): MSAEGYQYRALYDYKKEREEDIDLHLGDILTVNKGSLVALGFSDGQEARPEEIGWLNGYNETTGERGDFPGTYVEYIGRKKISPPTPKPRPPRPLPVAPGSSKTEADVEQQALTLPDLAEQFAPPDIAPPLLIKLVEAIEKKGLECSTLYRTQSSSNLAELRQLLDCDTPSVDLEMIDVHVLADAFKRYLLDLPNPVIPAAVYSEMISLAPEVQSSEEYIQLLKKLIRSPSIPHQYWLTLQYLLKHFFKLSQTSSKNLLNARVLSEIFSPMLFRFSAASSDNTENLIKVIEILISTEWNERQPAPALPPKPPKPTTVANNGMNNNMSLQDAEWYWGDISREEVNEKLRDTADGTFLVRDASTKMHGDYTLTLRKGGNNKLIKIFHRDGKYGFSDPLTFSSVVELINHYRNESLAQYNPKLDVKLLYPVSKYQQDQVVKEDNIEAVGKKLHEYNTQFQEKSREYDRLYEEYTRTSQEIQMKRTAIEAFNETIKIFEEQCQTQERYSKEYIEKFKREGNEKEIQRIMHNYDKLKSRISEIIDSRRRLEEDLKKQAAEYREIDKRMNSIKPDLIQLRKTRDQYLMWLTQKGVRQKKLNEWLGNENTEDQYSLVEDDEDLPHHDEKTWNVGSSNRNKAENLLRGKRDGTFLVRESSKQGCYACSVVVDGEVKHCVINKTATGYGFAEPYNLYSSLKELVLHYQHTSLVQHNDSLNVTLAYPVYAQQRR
Procedure: as §1

PI3Kγ = target: T3, PI3Kγ (Homo sapiens, UniProt P48736); experiment: TR-FRET enzymatic activity assay, PI3Kγ
T3 construct: made in house
T3 sequence (P48736 whole entry): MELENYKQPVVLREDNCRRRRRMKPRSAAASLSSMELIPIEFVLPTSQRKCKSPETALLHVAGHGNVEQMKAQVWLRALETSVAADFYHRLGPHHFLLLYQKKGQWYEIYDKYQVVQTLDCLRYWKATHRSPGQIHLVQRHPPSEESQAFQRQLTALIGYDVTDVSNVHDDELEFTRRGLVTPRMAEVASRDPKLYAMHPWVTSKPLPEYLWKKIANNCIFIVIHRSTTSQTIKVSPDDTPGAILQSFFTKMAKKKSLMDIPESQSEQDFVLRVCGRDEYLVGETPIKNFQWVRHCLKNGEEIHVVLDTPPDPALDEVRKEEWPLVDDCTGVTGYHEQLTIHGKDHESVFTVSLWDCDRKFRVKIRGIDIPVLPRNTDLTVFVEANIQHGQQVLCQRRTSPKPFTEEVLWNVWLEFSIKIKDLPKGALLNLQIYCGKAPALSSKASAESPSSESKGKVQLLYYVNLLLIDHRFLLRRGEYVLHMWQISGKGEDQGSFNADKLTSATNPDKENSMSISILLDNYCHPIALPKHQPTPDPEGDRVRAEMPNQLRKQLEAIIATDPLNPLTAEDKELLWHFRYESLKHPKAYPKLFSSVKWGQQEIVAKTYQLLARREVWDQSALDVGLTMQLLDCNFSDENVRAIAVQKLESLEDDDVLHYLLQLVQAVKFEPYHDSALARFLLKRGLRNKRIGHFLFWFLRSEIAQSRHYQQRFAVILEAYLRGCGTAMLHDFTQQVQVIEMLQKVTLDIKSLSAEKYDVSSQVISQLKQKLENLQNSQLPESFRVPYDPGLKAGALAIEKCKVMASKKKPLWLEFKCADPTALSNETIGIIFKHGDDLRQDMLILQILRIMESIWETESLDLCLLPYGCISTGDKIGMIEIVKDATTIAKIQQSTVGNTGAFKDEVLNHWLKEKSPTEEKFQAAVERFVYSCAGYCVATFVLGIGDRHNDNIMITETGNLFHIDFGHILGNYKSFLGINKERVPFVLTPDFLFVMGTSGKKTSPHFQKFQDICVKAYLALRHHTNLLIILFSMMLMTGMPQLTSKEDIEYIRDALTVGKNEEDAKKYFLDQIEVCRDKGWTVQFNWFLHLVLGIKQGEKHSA
T3 sequence (Q8WYR1 whole entry partner): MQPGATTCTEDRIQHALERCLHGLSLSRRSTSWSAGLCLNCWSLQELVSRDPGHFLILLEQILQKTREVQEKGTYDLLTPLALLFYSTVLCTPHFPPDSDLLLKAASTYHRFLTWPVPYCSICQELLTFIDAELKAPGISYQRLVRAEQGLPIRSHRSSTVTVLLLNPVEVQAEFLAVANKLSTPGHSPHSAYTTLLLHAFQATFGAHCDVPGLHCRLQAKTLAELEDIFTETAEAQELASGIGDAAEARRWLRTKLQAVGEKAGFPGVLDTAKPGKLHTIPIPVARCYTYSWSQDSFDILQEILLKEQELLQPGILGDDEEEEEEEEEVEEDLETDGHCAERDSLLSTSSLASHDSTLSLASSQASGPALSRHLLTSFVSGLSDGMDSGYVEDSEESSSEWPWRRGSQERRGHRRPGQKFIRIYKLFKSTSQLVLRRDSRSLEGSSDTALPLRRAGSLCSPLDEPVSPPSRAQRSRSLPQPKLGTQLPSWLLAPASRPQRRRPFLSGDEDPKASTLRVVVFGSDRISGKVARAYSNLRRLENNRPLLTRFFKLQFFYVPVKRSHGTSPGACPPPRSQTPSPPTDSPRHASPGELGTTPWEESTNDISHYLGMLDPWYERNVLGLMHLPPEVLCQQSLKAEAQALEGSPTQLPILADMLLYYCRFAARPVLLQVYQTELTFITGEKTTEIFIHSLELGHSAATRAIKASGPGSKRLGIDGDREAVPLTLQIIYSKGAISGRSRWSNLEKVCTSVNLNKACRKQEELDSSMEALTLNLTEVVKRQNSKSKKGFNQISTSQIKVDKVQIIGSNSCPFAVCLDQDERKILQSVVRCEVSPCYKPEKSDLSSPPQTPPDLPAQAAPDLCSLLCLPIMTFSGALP
Procedure: as §1

[1] = recombinant heterodimeric PI3Kβ 25-50 pM, 2× Km ATP, 30 minutes at 25°C
[2] = recombinant heterodimeric PI3Kδ 25-50 pM, 2× Km ATP, 30 minutes at 25°C
[3] = recombinant heterodimeric PI3Kγ 2 nM, 2× Km ATP, 30 minutes at 25°C

T1 sequence (P42338 whole entry): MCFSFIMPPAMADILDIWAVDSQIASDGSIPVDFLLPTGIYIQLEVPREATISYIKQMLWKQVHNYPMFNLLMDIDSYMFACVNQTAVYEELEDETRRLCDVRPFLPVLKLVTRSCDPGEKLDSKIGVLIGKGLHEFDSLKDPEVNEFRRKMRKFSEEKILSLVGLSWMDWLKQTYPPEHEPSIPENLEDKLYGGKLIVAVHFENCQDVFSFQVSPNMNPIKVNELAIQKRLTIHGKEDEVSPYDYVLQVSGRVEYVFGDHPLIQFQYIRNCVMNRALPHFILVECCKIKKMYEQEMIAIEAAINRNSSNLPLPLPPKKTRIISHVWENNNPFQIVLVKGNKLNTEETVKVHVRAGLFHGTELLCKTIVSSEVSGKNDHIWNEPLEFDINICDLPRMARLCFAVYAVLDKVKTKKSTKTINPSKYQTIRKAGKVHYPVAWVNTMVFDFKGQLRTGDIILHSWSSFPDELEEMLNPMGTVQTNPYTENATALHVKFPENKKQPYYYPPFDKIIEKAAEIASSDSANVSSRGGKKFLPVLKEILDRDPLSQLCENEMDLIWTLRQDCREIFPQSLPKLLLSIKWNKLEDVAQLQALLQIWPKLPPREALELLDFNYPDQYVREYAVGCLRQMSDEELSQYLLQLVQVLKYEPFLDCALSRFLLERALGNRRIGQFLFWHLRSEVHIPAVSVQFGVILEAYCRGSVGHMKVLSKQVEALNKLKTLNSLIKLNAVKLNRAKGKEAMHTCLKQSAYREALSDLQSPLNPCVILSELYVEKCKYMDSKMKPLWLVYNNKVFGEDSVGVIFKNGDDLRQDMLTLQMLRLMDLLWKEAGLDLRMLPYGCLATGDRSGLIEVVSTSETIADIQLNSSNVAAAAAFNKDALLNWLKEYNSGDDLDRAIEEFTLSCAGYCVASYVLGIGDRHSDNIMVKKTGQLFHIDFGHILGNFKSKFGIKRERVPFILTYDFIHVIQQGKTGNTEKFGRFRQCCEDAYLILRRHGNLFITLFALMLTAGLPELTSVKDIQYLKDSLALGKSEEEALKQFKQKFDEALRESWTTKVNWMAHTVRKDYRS
T1 sequence (P27986 whole entry partner): as the sequence (P27986 whole entry partner) above

IC50 (PI3Kβ; [1]) [nM]	IC50 (PI3Kδ; [2]) [nM]	IC50 (PI3Kγ; [3]) [nM]	IC50 (PI3Kβ) [nM]	IC50 (PI3Kδ) [nM]	IC50 (PI3Kγ) [nM]	SMILES
56	32	2900				CC[C@H](Nc1nc(N)nc(N)c1C#N)c1nc2cccc(Cl)c2c(=O)n1N1CCN(Cc2ccccc2)CC1 [Compound 94, (S)-2,4-diamino-6-((1-(3-(4-benzylpiperazin-1-yl)-5-chloro-4-oxo-3,4-dihydroquinazolin-2-yl)propyl)amino)pyrimidine-5-carbonitrile]
48	5	> 10000				O=c1c2c(Cl)ccc(F)c2nc([C@@H](Nc2ncnn3ccnc23)C2CC2)n1N1CCNCC1 [Compound 47, (S)-5-chloro-2-(cyclopropyl(imidazo[2,1-f][1,2,4]triazin-4-ylamino)methyl)-8-fluoro-3-(piperazin-1-yl)quinazolin-4(3H)-one]
600	42	1300				C[C@H](Nc1nc(N)nc(Cl)c1C#N)c1nc2cccc(Cl)c2c(=O)n1N1CCN(CC(F)F)CC1 [Compound 113, (S)-2-amino-4-chloro-6-((1-(5-chloro-3-(4-(2,2-difluoroethyl)piperazin-1-yl)-4-oxo-3,4-dihydroquinazolin-2-yl)ethyl)amino)pyrimidine-5-carbonitrile]
5600	830	> 10000				C[C@H](Nc1nc(N)nc(N)c1C#N)c1nc2cccc(Cl)c2c(=O)n1[C@@H]1CCCNC1 (stereo in doubt) [Compound 27, 2,4-diamino-6-(((S)-1-(5-chloro-4-oxo-3-((R)-piperidin-3-yl)-3,4-dihydroquinazolin-2-yl)ethyl)amino)pyrimidine-5-carbonitrile]
530	24	730				C[C@H](Nc1nc(N)nc(N)c1C#N)c1nc2cccc(Cl)c2c(=O)n1N1CCN(CC(F)F)CC1 [Compound 111, (S)-2,4-diamino-6-((1-(5-chloro-3-(4-(2,2-difluoroethyl)piperazin-1-yl)-4-oxo-3,4-dihydroquinazolin-2-yl)ethyl)amino)pyrimidine-5-carbonitrile]
42	8	> 10000				C[C@H](Nc1ncnn2ccnc12)c1nc2cccc(Cl)c2c(=O)n1N1CCNCC1 [Compound 65, (S)-5-chloro-2-(1-(imidazo[2,1-f][1,2,4]triazin-4-ylamino)ethyl)-3-(piperazin-1-yl)quinazolin-4(3H)-one]
47	5	229				C[C@H](Nc1nc(N)nc(N)c1C#N)c1nc2cccc(Cl)c2c(=O)n1[C@@H]1CCOC1 [Compound 137, 2,4-diamino-6-(((S)-1-(5-chloro-4-oxo-3-((R)-tetrahydrofuran-3-yl)-3,4-dihydroquinazolin-2-yl)ethyl)amino)pyrimidine-5-carbonitrile]
14	17	650				Cc1nc(N)nc(N[C@@H](C)c2nc3c(F)ccc(Cl)c3c(=O)n2N2CCN(Cc3ccccc3)CC2)c1C#N [Compound 118, (S)-2-amino-4-((1-(3-(4-benzylpiperazin-1-yl)-5-chloro-8-fluoro-4-oxo-3,4-dihydroquinazolin-2-yl)ethyl)amino)-6-methylpyrimidine-5-carbonitrile]
660	56	> 10000				C[C@H](Nc1nc(N)nc(N)c1Cl)c1nc2cccc(Cl)c2c(=O)n1[C@H]1CCCNCC1 [Compound 12, 3-((S)-azepan-4-yl)-5-chloro-2-((S)-1-((2,6-diamino-5-chloropyrimidin-4-yl)amino)ethyl)quinazolin-4(3H)-one]
30	4	> 10000				O=c1c2c(Cl)cccc2nc([C@@H](Nc2ncnn3ccnc23)C2CC2)n1N1CCNCC1 [Compound 43, (S)-5-chloro-2-(cyclopropyl(imidazo[2,1-f][1,2,4]triazin-4-ylamino)methyl)-3-(piperazin-1-yl)quinazolin-4(3H)-one]
1000	250	> 10000				C[C@H](Nc1ncnc(N)c1C#Cc1ccc(F)cn1)c1nc2cccc(Cl)c2c(=O)n1C1CNC1 [Compound 132, (S)-2-(1-((6-amino-5-((5-fluoropyridin-2-yl)ethynyl)pyrimidin-4-yl)amino)ethyl)-3-(azetidin-3-yl)-5-chloroquinazolin-4(3H)-one]
4	5	1200				C[C@H](Nc1nc(N)nc(N)c1C#N)c1nc2cccc(Cl)c2c(=O)n1N1CCN(CC(C)(C)C)CC1 [Compound 98, (S)-2,4-diamino-6-((1-(5-chloro-3-(4-neopentylpiperazin-1-yl)-4-oxo-3,4-dihydroquinazolin-2-yl)ethyl)amino)pyrimidine-5-carbonitrile]
4	2	1900				C[C@H](Nc1nc(N)nc(N)c1C#N)c1nc2c(F)ccc(Cl)c2c(=O)n1N1CCNCC1 [Compound 54, (S)-2,4-diamino-6-((1-(5-chloro-8-fluoro-4-oxo-3-(piperazin-1-yl)-3,4-dihydroquinazolin-2-yl)ethyl)amino)pyrimidine-5-carbonitrile]
58	1	524				N#Cc1c(N)nc(N)nc1N[C@H](c1nc2c(Cl)ccc(Cl)c2c(=O)n1C1CCC1)C1CC1 [Compound 138, (S)-2,4-diamino-6-((cyclopropyl(5,8-dichloro-3-cyclobutyl-4-oxo-3,4-dihydroquinazolin-2-yl)methyl)amino)pyrimidine-5-carbonitrile]
570	32	> 10000				CC(C)C[C@H](Nc1ncnc(N)c1C#N)c1nc2cccc(Cl)c2c(=O)n1N1CCNCC1 [Compound 74, (S)-4-amino-6-((1-(5-chloro-4-oxo-3-(piperazin-1-yl)-3,4-dihydroquinazolin-2-yl)-3-methylbutyl)amino)pyrimidine-5-carbonitrile]
13	15	470				C[C@H](Nc1nc(N)nc(N)c1C#N)c1nc2c(F)ccc(Cl)c2c(=O)n1N1CCN(Cc2ccccc2)CC1 [Compound 116, (S)-2,4-diamino-6-((1-(3-(4-benzylpiperazin-1-yl)-5-chloro-8-fluoro-4-oxo-3,4-dihydroquinazolin-2-yl)ethyl)amino)pyrimidine-5-carbonitrile]
10	2	> 10000				C[C@H](Nc1ncnc(N)c1C#Cc1ccc(F)cn1)c1nc2cccc(Cl)c2c(=O)n1N1CCNCC1 [Compound 58, (S)-2-(1-((6-amino-5-((5-fluoropyridin-2-yl)ethynyl)pyrimidin-4-yl)amino)ethyl)-5-chloro-3-(piperazin-1-yl)quinazolin-4(3H)-one]
96	38	2000				CC[C@H](Nc1nc(N)nc(N)c1C#N)c1nc2c(F)ccc(Cl)c2c(=O)n1N1CCN(Cc2ccccc2)CC1 [Compound 95, (S)-2,4-diamino-6-((1-(3-(4-benzylpiperazin-1-yl)-5-chloro-8-fluoro-4-oxo-3,4-dihydroquinazolin-2-yl)propyl)amino)pyrimidine-5-carbonitrile]
270	8	> 10000				C[C@H](Nc1ncnc(N)c1C#N)c1nc2cccc(Cl)c2c(=O)n1C1CCCNC1 (stereo partly drawn) [Compound 83, 4-amino-6-(((1S)-1-(5-chloro-4-oxo-3-(piperidin-3-yl)-3,4-dihydroquinazolin-2-yl)ethyl)amino)pyrimidine-5-carbonitrile]
25	4	> 10000				CC[C@H](Nc1ncnc2scnc12)c1nc2cccc(Cl)c2c(=O)n1N1CCNCC1 [Compound 80, (S)-5-chloro-3-(piperazin-1-yl)-2-(1-(thiazolo[5,4-d]pyrimidin-7-ylamino)propyl)quinazolin-4(3H)-one]
59	22	930				CC[C@H](Nc1nc(N)nc(N)c1C#N)c1nc2cccc(Cl)c2c(=O)n1N1CCN(Cc2ccc(F)cc2)CC1 [Compound 91, (S)-2,4-diamino-6-((1-(5-chloro-3-(4-(4-fluorobenzyl)piperazin-1-yl)-4-oxo-3,4-dihydroquinazolin-2-yl)propyl)amino)pyrimidine-5-carbonitrile]
160	7	> 10000				C[C@H](Nc1ncnc(N)c1C#N)c1nc2cccc(Cl)c2c(=O)n1C1CCNC1 (stereo partly drawn) [Compound 85, 4-amino-6-(((1S)-1-(5-chloro-4-oxo-3-(pyrrolidin-3-yl)-3,4-dihydroquinazolin-2-yl)ethyl)amino)pyrimidine-5-carbonitrile]
180	33	> 10000				C[C@H](Nc1nc(N)nc(N)c1Cl)c1nc2cccc(Cl)c2c(=O)n1[C@@H]1CCCNCC1 [Compound 13, 3-((R)-azepan-4-yl)-5-chloro-2-((S)-1-((2,6-diamino-5-chloropyrimidin-4-yl)amino)ethyl)quinazolin-4(3H)-one]
4700	70	> 10000				CCN1CCC(n2c([C@H](C)Nc3ncnc4[nH]cnc34)nc3cccc(Cl)c3c2=O)C1 (stereo partly drawn) [Compound 135, 2-((S)-1-((9H-purin-6-yl)amino)ethyl)-5-chloro-3-(1-ethylpyrrolidin-3-yl)quinazolin-4(3H)-one]
			3	1	1200	C[C@H](Nc1nc(N)nc(N)c1C#N)c1nc2cccc(Cl)c2c(=O)n1C1[C@H]2CNC[C@@H]12 (stereo in doubt) [Compound 19, 4-(((1S)-1-(3-((1R,5S)-3-azabicyclo[3.1.0]hexan-6-yl)-5-chloro-4-oxo-3,4-dihydroquinazolin-2-yl)ethyl)amino)-2,6-diaminopyrimidine-5-carbonitrile]
